According to US9018006B2, “Stable Tregs and related materials and methods” (The University of Toledo, priority 2010, dated 2015):

How the values were obtained:
[1] = system: Naïve CD4+ Foxp3/GFP− cells; experiment: Two-phase induction/expansion of iTregs, Method 1 (anti-CD3/anti-CD28 plus inhibitor, then rIL-2); type: cell-based, mouse
[2] = system: T effector (Teff) cells; conditions: Teff:Treg 1:1, after repeated re-stimulation
[3] = system: iTreg cells; experiment: Stability of Foxp3 expression of induced iTregs after re-stimulation with anti-CD3/anti-CD28 mAbs; type: cell-based, mouse; conditions: after repeated re-stimulation with anti-CD3/anti-CD28 mAbs; nTreg cells 80%
Method: FIGS. 4A-4B. Stability of Foxp3 expression and suppressor function of the two-phase induced iTreg T cells. The nTreg cells were isolated from spleen of naïve mice (left panel). Naïve mouse CD4^+Foxp3/GFP^− cells (1×10^6/ml) cultured with APCs were stimulated with anti-CD3 mAb in the presence of 5 ng/ml TGF-β, 5 μg/ml anti-IL-2 mAb (S4B6), or 100 nM CP-690,550 for 3 days. After washing, fresh medium was supplemented with 10 units/ml rIL-2 and cultured for additional 3 days (total 6 day culture). All these 4 populations were subsequently re-stimulated with anti-CD3 mAb/anti-CD28 mAb for 3 days and examined by FACscan for Foxp3 expression (FIG. 4A). Purified naive CD4^+Foxp3/GFP^− cells labeled with CFSE were used as T-effector (Teff) cells and mixed with re-stimulated nTreg cells or re-stimulated CP-690,550-induced iTreg cells. Proliferation was measured by the number of Teff cell divisions (FIG. 4B).
Furthermore, the stability of Foxp3 expression of anti-IL-2 mAb-(S4B6) or Jak3 inhibitor (CP-690,550)-induced iTregs was compared with TGF-β-induced iTregs.

[4] = system: transplant patients; conditions: compared with OKT3 mAb; cited from earlier work

C[C@@H]1CCN(C(=O)CC#N)C[C@@H]1N(C)c1ncnc2[nH]ccc12 [CP-690,550]
Foxp3 expression during proliferation (cell divisions) ([1]; 6-day culture): maintained similar levels of Foxp3 expression
number of CD4+CD25+Foxp3/GFP+ cells on day 6 of culture ([1]; from initial 0.05×10^6 CD4+ Foxp3/GFP− cells): 0.4×10^6 cells
expansion in the number of iTreg cells ([1]; initial 3-day exposure, day 6 of culture): 8 fold
suppressor function of induced iTreg cells [2]: maintained very potent suppressor function
induced iTreg cells that maintained Foxp3 expression [3]: 75%

O=C(N/N=C/c1coc2ccccc2c1=O)c1cccnc1 [Stat5 inhibitor]
naïve CD4+ Foxp3/GFP− cells converted into CD4+CD25+Foxp3/GFP+ iTregs ([1]; 100 ng/ml Stat5 inhibitor first 3 days, then rIL-2 3 days, untreated controls 7%): 36%

OKT3 mAb: mouse anti-human CD3 agonist mAb
adverse effects in patients [4]: elicited the release of many cytokines causing flu-like symptoms

TGF-β
induced iTreg cells that maintained Foxp3 expression [3]: 4.3%
